Source: patent US20230203043A1, “NOVEL IMIDAZOPYRAZINE DERIVATIVES” (Hoffmann-La Roche Inc., priority 2020, published 2023)
Where a name gives a salt, the structure may show the parent alone.

System: Acinetobacter baumannii ATCC17961
Experiment: Antimicrobial susceptibility testing: 90% growth inhibitory concentration (IC90) determination in Iso-Sensitest broth, OD600 growth
Format: cell-based
Details: Acinetobacter baumannii, ATCC17961, 16 h, read-out: A. baumannii ATCC 17961 IC90 (uM), strain ATCC 17961, OD600 growth over 16 h
Procedure, shortened: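 Growth inhibition is calculated during the logarithmic phase from OD600 readings taken every 20 minutes across 16 h at 35±2° C. Bacteria at ~5×10^(5) CFU/ml face twofold dilution series (e.g. 50 to 0.097 μM final).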

| SMILES | IC90 [µM] |
| --- | --- |
| Cc1cc(Nc2nccn3c(-c4c[nH]nc4C(F)(F)F)cnc23)ccc1C(=O)N1CCN(C(=O)NCCCN)CC1 [Example 417, N-(3-aminopropyl)-4-[2-methyl-4-[[3-[3-(trifluoromethyl)-1H-pyrazol-4-yl]imidazo[1,2-a]pyrazin-8-yl]amino]benzoyl]piperazine-1-carboxamide formate] | 0.506 |
| Cc1cc(Nc2nccn3c(-c4c[nH]nc4C(F)(F)F)cnc23)ccc1C(=O)N1CCN(C(=O)CCN)CC1 [Example 418, 3-amino-1-[4-[2-methyl-4-[[3-[3-(trifluoromethyl)-1H-pyrazol-4-yl]imidazo[1,2-a]pyrazin-8-yl]amino]benzoyl]piperazin-1-yl]propan-1-one formate] | 0.583 |
| Cc1cc(Nc2nccn3c(-c4cn(CC#N)nc4C(F)(F)F)cnc23)ccc1C(=O)N1CCN(C(=O)N[C@@H]2CNC[C@H]2O)CC1 [Example 419, 4-[4-[[3-[1-(cyanomethyl)-3-(trifluoromethyl)pyrazol-4-yl]imidazo[1,2-a]pyrazin-8-yl]amino]-2-methylbenzoyl]-N-[(3R,4R)-4-hydroxypyrrolidin-3-yl]piperazine-1-carboxamide formate] | 0.654 |
| Cc1cc(Nc2nccn3c(-c4cn(CC#N)nc4C(F)(F)F)cnc23)ccc1C(=O)N1CCN(C(=O)[C@@H]2CCNC[C@@H]2O)CC1 [Example 421, formic acid; 2-[4-[8-[4-[4-[(3R,4R)-3-hydroxypiperidine-4-carbonyl]piperazine-1-carbonyl]-3-methylanilino]imidazo[1,2-a]pyrazin-3-yl]-3-(trifluoromethyl)pyrazol-1-yl]acetonitrile] | 0.629 |
| Cc1cc(Nc2nccn3c(-c4cn(CC#N)nc4C(F)(F)F)cnc23)ccc1C(=O)N1CCN(C(=O)[C@@H]2C[C@@H](O)CN2)CC1 [Example 422, formic acid; 2-[4-[8-[4-[4-[(2S,4R)-4-hydroxypyrrolidine-2-carbonyl]piperazine-1-carbonyl]-3-methylanilino]imidazo[1,2-a]pyrazin-3-yl]-3-(trifluoromethyl)pyrazol-1-yl]acetonitrile] | 0.63 |
| Cc1cc(Nc2nccn3c(-c4cn(CC#N)nc4C(F)(F)F)cnc23)ccc1C(=O)N1CCN(C(=O)[C@@H]2C[C@](C)(O)CN2)CC1 [Example 424, formic acid; 2-[4-[8-[4-[4-[(2S,4S)-4-hydroxy-4-methylpyrrolidine-2-carbonyl]piperazine-1-carbonyl]-3-methylanilino]imidazo[1,2-a]pyrazin-3-yl]-3-(trifluoromethyl)pyrazol-1-yl]acetonitrile] | 0.685 |
| Cc1cc(Nc2nccn3c(-c4cn(CC#N)nc4C(F)(F)F)cnc23)ccc1C(=O)N1CCN(C(=O)C2(O)CCNCC2)CC1 [Example 425, formic acid; 2-[4-[8-[4-[4-(4-hydroxypiperidine-4-carbonyl]piperazine-1-carbonyl]-3-methylanilino]imidazo[1,2-a]pyrazin-3-yl]-3-(trifluoromethyl)pyrazol-1-yl]acetonitrile] | 0.691 |
| Cc1cc(Nc2nccn3c(-c4cn(CC#N)nc4C(F)(F)F)cnc23)ccc1C(=O)N1CCN(C(=O)[C@H]2C[C@H](O)CN2)CC1 [Example 426, formic acid; 2-[4-[8-[4-[4-[(2R,4S)-4-hydroxypyrrolidine-2-carbonyl]piperazine-1-carbonyl]-3-methylanilino]imidazo[1,2-a]pyrazin-3-yl]-3-(trifluoromethyl)pyrazol-1-yl]acetonitrile] | 0.948 |
| Cc1cc(Nc2nccn3c(-c4c[nH]nc4C(F)(F)F)cnc23)ccc1C(=O)N1CCN(C(=O)NCCN)CC1 [Example 428, N-(2-aminoethyl)-4-[2-methyl-4-[[3-[3-(trifluoromethyl)-1H-pyrazol-4-yl]imidazo[1,2-a]pyrazin-8-yl]amino]benzoyl]piperazine-1-carboxamide formate] | 0.465 |
| O=C(NCCCNC(=O)[C@@H]1C[C@@H](O)CN1)c1ccc(Nc2nccn3c(-c4c[nH]nc4C(F)(F)F)cnc23)cc1Cl [Example 429, (2S,4R)-N-[3-[[2-chloro-4-[[3-[3-(trifluoromethyl)-1H-pyrazol-4-yl]imidazo[1,2-a]pyrazin-8-yl]amino]benzoyl]amino]propyl]-4-hydroxypyrrolidine-2-carboxamide formate] | 1.07 |
| CCc1cc(Nc2nccn3c(-c4c[nH]nc4C(F)(F)F)cnc23)ccc1C(=O)NCCNC(=O)[C@@H]1C[C@@H](O)CN1 [Example 432, (2S,4R)-N-[2-[[2-ethyl-4-[[3-[3-(trifluoromethyl)-1H-pyrazol-4-yl]imidazo[1,2-a]pyrazin-8-yl]amino]benzoyl]amino]ethyl]-4-hydroxypyrrolidine-2-carboxamide formate] | 0.751 |
| O=C(NCCNC(=O)[C@@H]1C[C@@H](O)CN1)c1ccc(Nc2nccn3c(-c4c[nH]nc4C(F)(F)F)cnc23)cc1Cl [Example 433, (2S,4R)-N-[2-[[2-chloro-4-[[3-[3-(trifluoromethyl)-1H-pyrazol-4-yl]imidazo[1,2-a]pyrazin-8-yl]amino]benzoyl]amino]ethyl]-4-hydroxypyrrolidine-2-carboxamide formate] | 2.66 |
| CCc1cc(Nc2nccn3c(-c4c[nH]nc4C(F)(F)F)cnc23)ccc1C(=O)NCCCNC(=O)[C@@H]1C[C@@H](O)CN1 [Example 434, (2S,4R)-N-[3-[[2-ethyl-4-[[3-[3-(trifluoromethyl)-1H-pyrazol-4-yl]imidazo[1,2-a]pyrazin-8-yl]amino]benzoyl]amino]propyl]-4-hydroxypyrrolidine-2-carboxamide formate] | 0.463 |
| CCc1cc(Nc2nccn3c(-c4c[nH]nc4C(F)(F)F)cnc23)ccc1C(=O)NCCNC(=O)[C@@H]1C[C@@](O)(CC)CN1 [Example 435, (2S,4S)-4-ethyl-N-[2-[[2-ethyl-4-[[3-[3-(trifluoromethyl)-1H-pyrazol-4-yl]imidazo[1,2-a]pyrazin-8-yl]amino]benzoyl]amino]ethyl]-4-hydroxypyrrolidine-2-carboxamide formate] | 2.69 |
| O=C(N[C@H]1CNC[C@@H]1O)N1CCN(C(=O)c2ccc(Nc3nccn4c(-c5c[nH]nc5C(F)(F)F)cnc34)cc2Cl)CC1 [Example 440, 4-[2-chloro-4-[[3-[3-(trifluoromethyl)-1H-pyrazol-4-yl]imidazo[1,2-a]pyrazin-8-yl]amino]benzoyl]-N-[(3S,4S)-4-hydroxypyrrolidin-3-yl]piperazine-1-carboxamide formate] | 0.497 |
| O=C(N[C@@H]1CNC[C@H]1O)N1CCN(C(=O)c2ccc(Nc3nccn4c(-c5c[nH]nc5C(F)(F)F)cnc34)cc2Cl)CC1 [Example 441, 4-[2-chloro-4-[[3-[3-(trifluoromethyl)-1H-pyrazol-4-yl]imidazo[1,2-a]pyrazin-8-yl]amino]benzoyl]-N-[(3R,4R)-4-hydroxypyrrolidin-3-yl]piperazine-1-carboxamide formate] | 0.617 |
| Cc1cc(Nc2nccn3c(-c4c[nH]nc4C(F)(F)F)cnc23)ccc1C(=O)NCCCNC(=O)[C@@H]1C[C@@H](O)CN1 [Example 442, formic acid; (2S,4R)-4-hydroxy-N-[3-[[2-methyl-4-[[3-[3-(trifluoromethyl)-1H-pyrazol-4-yl]imidazo[1,2-a]pyrazin-8-yl]amino]benzoyl]amino]propyl]pyrrolidine-2-carboxamide] | 0.622 |
| C[C@@]1(O)CN[C@H](C(=O)N2CCN(C(=O)c3ccc(Nc4nccn5c(-c6c[nH]nc6C(F)(F)F)cnc45)cc3Cl)CC2)C1 [Example 443, [2-chloro-4-[[3-[3-(trifluoromethyl)-1H-pyrazol-4-yl]imidazo[1,2-a]pyrazin-8-yl]amino]phenyl]-[4-[(2S,4S)-4-hydroxy-4-methylpyrrolidine-2-carbonyl]piperazin-1-yl]methanone formate] | 0.81 |
| Cc1cc(Nc2nccn3c(-c4c[nH]nc4C(F)(F)F)cnc23)ccc1C(=O)NCCNC(=O)[C@@H]1C[C@@H](O)CN1 [Example 444, formic acid; (2S,4R)-4-hydroxy-N-[2-[[2-methyl-4-[[3-[3-(trifluoromethyl)-1H-pyrazol-4-yl]imidazo[1,2-a]pyrazin-8-yl]amino]benzoyl]amino]ethyl]pyrrolidine-2-carboxamide] | 1.43 |

Same assay, conditions: Acinetobacter baumannii, ATCC17961, 16 h, strain ATCC 17961, OD600 growth over 16 h, read-out: A. baumannii ATCC 17961 IC90

| SMILES | IC90 [µM] |
| --- | --- |
| Cc1cc(Nc2nccn3c(-c4c[nH]nc4C(F)(F)F)cnc23)ccc1C(=O)N1CCN(C(=O)CCCN)CC1 [Example 420, 4-amino-1-[4-[2-methyl-4-[[3-[3-(trifluoromethyl)-1H-pyrazol-4-yl]imidazo[1,2-a]pyrazin-8-yl]amino]benzoyl]piperazin-1-yl]butan-1-one] | 0.746 |
| CCc1cc(Nc2nccn3c(-c4c[nH]nc4C(F)F)cnc23)ccc1C(=O)NCCOCCN [Example 430, N-[2-(2-aminoethoxy)ethyl]-4-[[3-[3-(difluoromethyl)-1H-pyrazol-4-yl]imidazo[1,2-a]pyrazin-8-yl]amino]-2-ethylbenzamide] | 2.14 |
| O=C(c1ccc(Nc2nccn3c(-c4c[nH]nc4C(F)(F)F)cnc23)cc1Cl)N1CCNCC1 [Example 431, [2-chloro-4-[[3-[3-(trifluoromethyl)-1H-pyrazol-4-yl]imidazo[1,2-a]pyrazin-8-yl]amino]phenyl]-piperazin-1-ylmethanone] | 0.449 |
| Cc1cc(Nc2nccn3c(-c4c[nH]nc4C(F)(F)F)cnc23)ccc1C(=O)N1CCN(C(=O)C2(O)CCCNC2)CC1 (stereo not drawn) [Example 436, [4-(3-hydroxypiperidine-3-carbonyl)piperazin-1-yl]-[2-methyl-4-[[3-[3-(trifluoromethyl)-1H-pyrazol-4-yl]imidazo[1,2-a]pyrazin-8-yl]amino]phenyl]methanone hydrochloride] | 0.536 |
| CCc1cc(Nc2nccn3c(-c4cn(C)nc4C(F)(F)F)cnc23)ccc1C(=O)NCCCNC(=O)[C@@H]1C[C@@H](O)CN1 [Example 437, (2S,4R)-N-[3-[[2-ethyl-4-[[3-[1-methyl-3-(trifluoromethyl)pyrazol-4-yl]imidazo[1,2-a]pyrazin-8-yl]amino]benzoyl]amino]propyl]-4-hydroxypyrrolidine-2-carboxamide] | 1.02 |
